Source: patent US4746663A, “Pyrazolo[4,3-d]pyrimidine derivative, process for its production, and antihyperlipidemic or antiatherosclerotic agent containing it” (Nissan Chemical Industries Ltd., priority 1985, dated 1988)
“Also recorded” adds a separate entry of the source. Each block holds one molecule with its values, some of them ahead of it.

Experiments:
serum lipid = conditions: Science, 193, 903 (1976); J. Lipid Res., 12, 596 (1971); cited from earlier work
[1] = literature, in words; cited from earlier work
[2] = test system: emulsion-induced hyperlipidemic rats; test: Test 1: antihyperlipidemic activity in emulsion-induced hyperlipidemic rats; assay type: in vivo, Male S.D. rats; conditions: via stomach tube daily, 3 days; for Reduction rate of serum Chol. / Increase rate of serum HDLChol.: vs control group; for Degree of hepatomegaly (change rate of the liver weight): liver weight per 100 g body weight vs control group
Method: The antihyperlipidemic activity in emulsion-induced hyperlipidemic rats:
Male S.D. rats weighing 80-90 g (4 weeks old) were used. They were divided into groups of 5 to 6 rats each. The test compounds suspended in 0.5% CMC-Na(carboxymethyl cellulose sodium salt) were given to the rats in a daily dose of 4 ml/kg via stomach tube every 10:00 a.m. After 30 min., lipids emulsion having the following composition was orally given to the rats in an amount of 2.5 ml per rat.
During the experimental period of 3 days, the rats were fed on a standard commercial diet and water ad libitum. […] The total cholesterol and HDL cholesterol were measured.
The weight of the liver was measured. To the control group, only the aqueous CMC-Na solution and the lipids emulsion were given.
The fractionation of lipoproteins was conducted by a dextran sulfate-MgCl2 precipitation method.
Cholesterol in serum was measured by means of a cholesterol measuring kit (Cholesterol C-Test Wako, manufactured by Wako Junyaku Co., Ltd.), and cholesterol in HDL was measured by means of NC Hi-Set, manufactured by Nippon Chemiphar Co., Ltd.
Further, the reduction rate of Chol was calculated by the following equation. [formula] where A is the amount of serum Chol (mg/dl) of the control group, and B is the amount of serum Chol (mg/dl) of the group to which the therapeutic agent was administered.
Likewise, the increase rate of HDL-Chol was calculated by the following equation. [formula] where C is the amount of serum HDL-Chol (mg/dl) of the control group, and D is the amount of serum HDL-Chol (mg/dl) of the group to which the therapeutic agent was administered.
The degree of hepatomegaly (i.e. the change rate of the liver weight) was calculated by the following equation. [formula] where E is the liver weight (g) per 100 g of the body weight of the control group, and F is the liver weight (g) per 100 g of the body weight of the group to which the therapeutic agent was administered.

[3] = animal experiments; Cancer Res., 39, 3419 (1979); cited from earlier work
Test 2: acute toxicity = conditions: mouse, in vivo, po, 1000 mg/kg in corn oil, male ddY mice, after seven days
Method: The test compounds dissolved in corn oil were administered p.o. to male ddY mice. The acute toxicity was determined based on the mortality after seven days. In respect of the compounds of Examples 1 and 2 of the present invention, the mortality was 0% even at a dose of as high as 1000 mg/kg by oral administration.

[4] = 300 mg/kg, minus value represents a reduction rate

SMILES: Nc1ncnc2[nH]ncc12 [1H-pyrazolo[3,4-d]pyrimidine-4-amine]
function to reduce serum lipid (serum lipid): function to reduce serum lipid

Degree of hepatomegaly (change rate of the liver weight) ([2]; 300 mg/kg): 12.1%
SMILES: CCOC(=O)C(C)(C)Oc1ccc(Cl)cc1 [Clofibrate, reference compound]
subsidiary ill effects [1]: myalgia or hepatic insufficiency; also recorded: likely to lead to gallstone formation
Reduction rate of serum Chol. ([2]; 300 mg/kg): 35.6%
Increase rate of serum HDLChol. [2, 4]: -18.2%
hepatic carcinoma [3]: brings about hepatic carcinoma

SMILES: CCCCC/C=C\C/C=C\CCCCCCCCOc1c2ncnc(SCC(=O)O)c2nn1C [Example 1, 2-Methyl-3-linoleyloxy-7-carboxymethylthio-pyrazolo[4,3-d]pyrimidine]
Increase rate of serum HDLChol. ([2]; 25 mg/kg): 21.8%
Reduction rate of serum Chol. ([2]; 25 mg/kg): 25.6%
Degree of hepatomegaly (change rate of the liver weight) ([2]; 25 mg/kg): 6.0%
Increase rate of serum HDLChol. ([2]; 50 mg/kg): 13.4%
Reduction rate of serum Chol. ([2]; 50 mg/kg): 35.5%
Degree of hepatomegaly (change rate of the liver weight) ([2]; 50 mg/kg): 7.6%
Reduction rate of serum Chol. ([2]; 300 mg/kg): 73.5%
Increase rate of serum HDLChol. [2, 4]: -17.7%
Degree of hepatomegaly (change rate of the liver weight) ([2]; 300 mg/kg): 17.8%
mortality at 168 h (Test 2: acute toxicity): 0%

SMILES: CCCCCCCCCCCCCCCCOc1c2ncnc(SCC(=O)O)c2nn1C [Example 2, 2-Methyl-3-cetyloxy-7-carboxymethylthio-pyrazolo[4,3-d]pyrimidine]
Reduction rate of serum Chol. ([2]; 300 mg/kg): 41.0%
Increase rate of serum HDLChol. [2, 4]: 14.1%
Degree of hepatomegaly (change rate of the liver weight) ([2]; 300 mg/kg): 9.2%
mortality at 168 h (Test 2: acute toxicity): 0%

SMILES: O=C(O)c1cccnc1 [nicotinic acid]
subsidiary ill effects [1]: flashing or gastroenteric troubles
